Assay results as given in the OligoGym collection.
After the bases stand the sugars from the 5' end (letter, count) and the backbone: PS all phosphorothioate, else s phosphorothioate and o phosphodiester by linkage. Methylation of C is not given here. l = locked nucleic acid (LNA); d = 2'-deoxy (DNA)

Biological target: SNHG14
Settings: ASO

Sequence | target mRNA inhibition (Human Neuronal Cell, 0.2 µM) [%] | target mRNA inhibition (Human Neuronal Cell, 1 µM) [%] | target mRNA inhibition (Human Neuronal Cell, 7.5 µM) [%] | other results
TCATACTTGCTTTAAT (sugars l4 d10 l2, PS) | 13 | 38 |  | 
TCATTTCATATTACTAAC (sugars l4 d12 l2, PS) | 13 | 32 |  | 
TCCAGCATATTATATA (sugars l4 d10 l2, PS) | 24 | 10 |  | 
TCCTATATTCTCTTAAA (sugars l4 d11 l2, PS) | 47 | 66 |  | 
TCTCTACAACAGTCCCA (sugars l2 d13 l2, PS) | 44 | 55 |  | 
TCTGTATACACCATCCC (sugars l2 d1 l1 d11 l2, PS) |  |  | 56 | 
TCTTACCAATAGTTACC (sugars l4 d11 l2, PS) | 45 | 55 |  | 
TCTTACTCTGACTTTCC (sugars l2 d12 l3, PS) | 68 | 71 |  | 
TCTTTCCATTTATTTCCAT (sugars l2 d14 l3, PS) |  |  | 43 | 
TCTTTCCATTTATTTCCAT (sugars lddldldddddddldldll, PS) |  |  | 37 | 
TCTTTCCATTTATTTCCATT (sugars l2 d13 l1 d1 l3, PS) |  |  | 42 | 
TGAAAATCTCAACTACCAT (sugars l4 d12 l3, PS) |  |  | 49 | 
TGAAAATCTCAACTACCAT (sugars lddddlddddddldlldll, PS) |  |  | 42 | 
TGAAAATCTCAACTACCAT (sugars ldldldddddddldddlll, PS) |  |  | 50 | 
TGAAAATCTCAACTACCAT (sugars llldllddddddlddddll, PS) |  |  | 55 | 
TGAAACTATTACTCCT (sugars l3 d10 l3, PS) | 44 | 61 |  | 
TGACATAACCATATAC (sugars l3 d10 l3, PS) | 20 | 30 |  | 
TGCTACCATCATTACCT (sugars l2 d13 l2, PS) | 12 | 19 |  | 
TGTACTTTCCTTTACCA (sugars l2 d13 l2, PS) | 33 | 59 |  | 
TGTCATCTAACTTCTTA (sugars l4 d11 l2, PS) | 45 | 38 |  | 
TGTTTATACCCTTTCCA (sugars l3 d12 l2, PS) | 35 | 50 |  | 
TGTTTATACCCTTTCCAA (sugars lddddlddddddldldll, PS) |  |  | 47 | 
TGTTTCCATCTACTATTA (sugars l1 d4 l1 d9 l3, PS) |  |  | 61 | 

Sequence | target mRNA inhibition (Human Neuronal Cell, 0.2 µM) [%] | target mRNA inhibition (Human Neuronal Cell, 1 µM) [%] | target mRNA inhibition (Human Neuronal Cell, 7.5 µM) [%] | other results
TGTTTCCATCTACTATTA (sugars l1 d4 l1 d10 l2, PS) |  |  | 60 | 
TTACACTTAATTATACTT (sugars l3 d12 l3, PS) | 14 | 22 |  | 
TTACACTTAATTATACTTCC (sugars l1 d5 l1 d9 l4, PS) |  |  | 61 | 
TTACACTTAATTATACTTCC (sugars l3 d1 l1 d12 l3, PS) |  |  | 70 | 
TTACACTTAATTATACTTCC (sugars ldldddlddddddddlddll, PS) |  |  | 64 | 
TTACCAATAGTTACCT (sugars l3 d10 l3, PS) | 33 | 48 |  | 
TTACCTACATCTCATAC (sugars l3 d11 l3, PS) | 0 | 5 |  | target mRNA inhibition (Human Neuronal Cell, 5 µM): 21%; target mRNA inhibition (Mouse Primary Neuronal Cell, 0.005 µM): 91.3%
TTACTCTTAGCAACCT (sugars l4 d10 l2, PS) | 58 | 54 |  | 
TTATACCCTTTCCAAT (sugars l2 d10 l4, PS) | 40 | 60 |  | 
TTATACCTTTCTTTAACCCT (sugars ldddldddddddddddldll, PS) |  |  | 57 | 
TTATAGCCATTCTATCT (sugars l1 d10 l2 d2 l2, PS) |  |  | 48 | 
TTATAGCCATTCTATCT (sugars l2 d9 l1 d3 l2, PS) |  |  | 52 | 
TTATAGCCATTCTATCT (sugars l3 d8 l1 d3 l2, PS) |  |  | 58 | 
TTATAGCCATTCTATCT (sugars l3 d9 l1 d1 l3, PS) |  |  | 54 | 
TTATAGCCATTCTATCT (sugars l4 d7 l1 d3 l2, PS) |  |  | 44 | 
TTATAGCCATTCTATCT (sugars ldddlddddddldddll, PS) |  |  | 42 | 
TTATAGCCATTCTATCT (sugars lddlddddddddlldll, PS) |  |  | 25 | 
TTATAGCCATTCTATCT (sugars llldlddddddldddll, PS) |  |  | 52 | 
TTATTAACCACCTTAA (sugars l3 d10 l3, PS) | 21 | 49 |  | 
TTCACCTAATAGCACCA (sugars l2 d11 l4, PS) | 54 | 64 |  | 
TTCCATTTATTTCCATTTAT (sugars ldldllddddddddldddll, PS) |  |  | 59 | 
TTCCCTTTGATAACAT (sugars l4 d10 l2, PS) | 9 | 34 |  | 
